Data as given in the supplement of paper PMC10307832.

How the values were obtained:
Test in all cases: relative viability (nuclei count vs DMSO), 5 days (fraction); higher = more cells survive
AZD8055 + Navitoclax = compound: COc1ccc(-c2ccc3c(N4CCOC[C@@H]4C)nc(N4CCOC[C@@H]4C)nc3n2)cc1CO [AZD8055] + CC1(C)CCC(c2ccc(Cl)cc2)=C(CN2CCN(c3ccc(C(=O)NS(=O)(=O)c4ccc(N[C@H](CCN5CCOCC5)CSc5ccccc5)c(S(=O)(=O)C(F)(F)F)c4)cc3)CC2)C1 [Navitoclax] (partner 0.5 µM)
How it was run: (§1)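 After 5 days of treatment, lung cancer cells in 1536-well plates were fixed and stained in a single step (final 0.05% Triton X-100, 1% formaldehyde, 1 ug/ml Hoechst) and their nuclei counted on 4× images. Treatment had been applied by pin tool the day after seeding as one drug alone or as a fixed anchor-drug dose with five library-drug doses (not always all listed) in √10 steps. Relative viability is the nuclei count of treated wells divided by that of vehicle wells, and values are medians of duplicate plates.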

AZD8055 + Vorinostat = compound: COc1ccc(-c2ccc3c(N4CCOC[C@@H]4C)nc(N4CCOC[C@@H]4C)nc3n2)cc1CO [AZD8055] + O=C(CCCCCCC(=O)Nc1ccccc1)NO [Vorinostat] (partner 1 µM)
How it was run: as §1

AZD8055 + Pemetrexed = compound: COc1ccc(-c2ccc3c(N4CCOC[C@@H]4C)nc(N4CCOC[C@@H]4C)nc3n2)cc1CO [AZD8055] + Nc1nc2[nH]cc(CCc3ccc(C(=O)N[C@@H](CCC(=O)O)C(=O)O)cc3)c2c(=O)[nH]1 [Pemetrexed] (partner 0.2 µM)
How it was run: as §1

AZD8055 + Linsitinib = compound: COc1ccc(-c2ccc3c(N4CCOC[C@@H]4C)nc(N4CCOC[C@@H]4C)nc3n2)cc1CO [AZD8055] + C[C@]1(O)C[C@@H](c2nc(-c3ccc4ccc(-c5ccccc5)nc4c3)c3c(N)nccn32)C1 [Linsitinib] (partner 1 µM)
How it was run: as §1

| Cell Line | relative viability (AZD8055 + Navitoclax; first compound 0.01 µM) | relative viability (AZD8055 + Navitoclax; first compound 0.03162 µM) | relative viability (AZD8055 + Navitoclax; first compound 0.1 µM) | relative viability (AZD8055 + Navitoclax; first compound 0.3162 µM) | relative viability (AZD8055 + Navitoclax; first compound 1 µM) | relative viability (AZD8055 + Vorinostat; first compound 0.01 µM) | relative viability (AZD8055 + Vorinostat; first compound 0.03162 µM) | relative viability (AZD8055 + Vorinostat; first compound 0.1 µM) | relative viability (AZD8055 + Vorinostat; first compound 0.3162 µM) | relative viability (AZD8055 + Vorinostat; first compound 1 µM) | relative viability (AZD8055 + Pemetrexed; first compound 0.01 µM) | relative viability (AZD8055 + Pemetrexed; first compound 0.03162 µM) | relative viability (AZD8055 + Pemetrexed; first compound 0.1 µM) | relative viability (AZD8055 + Pemetrexed; first compound 0.3162 µM) | relative viability (AZD8055 + Pemetrexed; first compound 1 µM) | relative viability (AZD8055 + Linsitinib; first compound 0.01 µM) | relative viability (AZD8055 + Linsitinib; first compound 0.03162 µM) | relative viability (AZD8055 + Linsitinib; first compound 0.1 µM) | relative viability (AZD8055 + Linsitinib; first compound 0.3162 µM) | relative viability (AZD8055 + Linsitinib; first compound 1 µM) |
| --- | --- | --- | --- | --- | --- | --- | --- | --- | --- | --- | --- | --- | --- | --- | --- | --- | --- | --- | --- | --- |
| HCC-366 | 1.15 | 0.911 | 0.694 | 0.418 | 0.132 | 0.372 | 0.205 | 0.182 | 0.0725 | 0.0602 | 0.256 | 0.285 | 0.248 | 0.161 | 0.109 | 0.539 | 0.245 | 0.218 | 0.0598 | 0.0927 |
| HCC-827 | 1.03 | 0.991 | 1.03 | 0.92 | 0.456 | 0.849 | 0.882 | 0.89 | 0.521 | 0.397 | 0.278 | 0.242 | 0.239 | 0.275 | 0.216 | 0.97 | 0.971 | 0.932 | 0.794 | 0.469 |
| HOP-62 | 1.09 | 1.11 | 1.17 | 0.75 | 0.594 | 0.636 | 0.413 | 0.587 | 0.298 | 0.183 | 0.312 | 0.29 | 0.338 | 0.35 | 0.242 | 1.09 | 0.789 | 0.869 | 0.362 | 0.266 |
| IA-LM | 0.566 | 0.495 | 0.291 | 0.109 | 0.105 | 0.814 | 0.758 | 0.524 | 0.172 | 0.127 |  |  |  |  |  | 0.876 | 0.611 | 0.252 | 0.0793 | 0.118 |
| LC-2-ad | 0.349 | 0.309 | 0.163 | 0.185 | 0.154 | 0.773 | 0.688 | 0.705 | 0.497 | 0.457 | 0.281 | 0.277 | 0.307 | 0.289 | 0.278 | 0.852 | 0.803 | 0.56 | 0.414 | 0.397 |
| LCLC-97TM1 | 0.45 | 0.225 | 0.214 | 0.13 | 0.144 | 0.751 | 0.585 | 0.414 | 0.354 | 0.308 | 0.18 | 0.158 | 0.168 | 0.168 | 0.132 | 0.182 | 0.143 | 0.13 | 0.122 | 0.139 |
| LCLC-103H |  |  |  |  |  | 0.825 | 0.765 | 0.619 | 0.445 | 0.437 | 0.499 | 0.438 | 0.54 | 0.49 | 0.392 | 1 | 0.929 | 0.723 | 0.467 | 0.481 |
| LK-2 | 0.797 | 0.584 | 0.441 | 0.216 | 0.241 | 0.3 | 0.172 | 0.271 | 0.167 | 0.157 | 0.234 | 0.185 | 0.138 | 0.137 | 0.11 | 0.334 | 0.28 | 0.249 | 0.164 | 0.238 |
